In the NIST ThermoML archive (doi:10.1016/j.jct.2008.12.004):

Assay: excess molar enthalpy (molar enthalpy of mixing); xn = mol fraction of the nth substance listed
Conditions: 101 kPa, Liquid, Flow calorimetry

CCCCCCC [heptane] + CCOC(C)(C)C
x2 = 0
Conditions | excess molar enthalpy [kcal/mol]
298.15 K | 0
313.15 K | 0

CCCCCC [hexane] + COC(C)(C)C
Conditions | excess molar enthalpy [kcal/mol]
298.15 K, x2 = 0 | 0

C1CCCCC1 [cyclohexane] + CCOC(C)(C)C
x2 = 0
Conditions | excess molar enthalpy [kcal/mol]
298.15 K | 0
313.15 K | 0

CCCCCCC [heptane] + Cc1ccccc1
x1 = 1
Conditions | excess molar enthalpy [kcal/mol]
298.15 K | 0
313.15 K | 0

CCOC(C)(C)C [2-ethoxy-2-methylpropane] + C1CCCCC1
excess molar enthalpy [kcal/mol]
Conditions | 298.15 K | 313.15 K
x1 = 0.0505 | 0.0121 | –
x1 = 0.0506 | – | 0.0114
x1 = 0.1 | 0.0236 | –
x1 = 0.1001 | – | 0.0219
x1 = 0.1508 | 0.0343 | –
x1 = 0.1509 | – | 0.0326
x1 = 0.2005 | 0.0433 | –
x1 = 0.2006 | – | 0.0417
x1 = 0.2514 | 0.0519 | –
x1 = 0.2515 | – | 0.05
x1 = 0.3011 | 0.059 | –
x1 = 0.3012 | – | 0.0562
x1 = 0.3519 | 0.0652 | 0.0624
x1 = 0.4014 | 0.0703 | –
x1 = 0.4015 | – | 0.0675
x1 = 0.4519 | 0.0741 | –
x1 = 0.452 | – | 0.0704
x1 = 0.5012 | 0.0761 | 0.0729
x1 = 0.5513 | 0.0773 | 0.0736
x1 = 0.6021 | 0.0764 | 0.0731
x1 = 0.6516 | 0.0739 | –
x1 = 0.6517 | – | 0.0708
x1 = 0.7017 | 0.0701 | –
x1 = 0.7019 | – | 0.0669
x1 = 0.7507 | 0.0643 | –
x1 = 0.7508 | – | 0.0616
x1 = 0.8002 | 0.0564 | 0.0535
x1 = 0.85 | – | 0.0439
x1 = 0.8501 | 0.0464 | –
x1 = 0.9003 | 0.0339 | 0.0321
x1 = 0.9508 | 0.0182 | 0.0174
x1 = 1 | 0 | 0

C1CCCCC1 [cyclohexane] + Cc1ccccc1
excess molar enthalpy [kcal/mol]
Conditions | 298.15 K | 313.15 K
x1 = 0.0491 | – | 0.0248
x1 = 0.0492 | 0.0263 | –
x1 = 0.1003 | – | 0.0482
x1 = 0.1004 | 0.051 | –
x1 = 0.1496 | – | 0.0686
x1 = 0.1497 | 0.0728 | –
x1 = 0.199 | – | 0.0861
x1 = 0.1991 | 0.091 | –
x1 = 0.2485 | – | 0.101
x1 = 0.2486 | 0.108 | –
x1 = 0.298 | – | 0.115
x1 = 0.2981 | 0.121 | –
x1 = 0.3477 | – | 0.125
x1 = 0.3479 | 0.132 | –
x1 = 0.3974 | – | 0.134
x1 = 0.3976 | 0.141 | –
x1 = 0.4493 | 0.147 | 0.139
x1 = 0.4992 | 0.149 | 0.142
x1 = 0.5493 | 0.149 | 0.142
x1 = 0.5974 | – | 0.139
x1 = 0.5975 | 0.147 | –
x1 = 0.6476 | – | 0.134
x1 = 0.6478 | 0.141 | –
x1 = 0.6979 | – | 0.125
x1 = 0.6981 | 0.131 | –
x1 = 0.7483 | – | 0.113
x1 = 0.7485 | 0.118 | –
x1 = 0.7989 | – | 0.0978
x1 = 0.799 | 0.103 | –
x1 = 0.8496 | 0.0828 | 0.0788
x1 = 0.9003 | 0.0585 | 0.0562
x1 = 0.9491 | 0.0319 | 0.0304
x1 = 1 | 0 | 0

Cc1ccccc1 [toluene] + CCOC(C)(C)C
x2 = 0
Conditions | excess molar enthalpy [kcal/mol]
298.15 K | 0
313.15 K | 0

CCCCCC [hexane] + C1CCCCC1
Conditions | excess molar enthalpy [kcal/mol]
298.15 K, x2 = 0 | 0

C1CCCCC1 [cyclohexane] + CCCCCC
298.15 K
Conditions | excess molar enthalpy [kcal/mol]
x1 = 0.074 | 0.0116
x1 = 0.1463 | 0.0217
x1 = 0.219 | 0.0302
x1 = 0.2876 | 0.0377
x1 = 0.3542 | 0.0438
x1 = 0.4193 | 0.0482
x1 = 0.4832 | 0.0512
x1 = 0.5476 | 0.0524
x1 = 0.6085 | 0.0525
x1 = 0.6675 | 0.051
x1 = 0.7255 | 0.0476
x1 = 0.7839 | 0.0426
x1 = 0.8395 | 0.0353
x1 = 0.8935 | 0.026
x1 = 0.9482 | 0.014
x1 = 1 | 0

Cc1ccccc1 [toluene] + C1CCCCC1
x2 = 0
Conditions | excess molar enthalpy [kcal/mol]
298.15 K | 0
313.15 K | 0

Cc1ccccc1 [toluene] + CCCCCCC
excess molar enthalpy [kcal/mol]
Conditions | 298.15 K | 313.15 K
x2 = 0 | 0 | 0
x2 = 0.0502 | 0.0295 | 0.0284
x2 = 0.1008 | 0.0551 | 0.053
x2 = 0.1501 | 0.0761 | 0.0732
x2 = 0.1995 | 0.094 | 0.09
x2 = 0.2507 | – | 0.104
x2 = 0.2508 | 0.108 | –
x2 = 0.3002 | 0.119 | 0.114
x2 = 0.3495 | 0.127 | –
x2 = 0.3496 | – | 0.121
x2 = 0.4005 | 0.131 | –
x2 = 0.4006 | – | 0.126
x2 = 0.4494 | 0.134 | –
x2 = 0.4497 | – | 0.128
x2 = 0.4999 | 0.133 | 0.128
x2 = 0.55 | 0.13 | 0.125
x2 = 0.5995 | 0.125 | 0.119
x2 = 0.6505 | 0.116 | –
x2 = 0.6506 | – | 0.111
x2 = 0.7009 | 0.106 | 0.102
x2 = 0.7504 | 0.0935 | –
x2 = 0.7505 | – | 0.0899
x2 = 0.799 | 0.0797 | 0.0763
x2 = 0.849 | 0.0631 | 0.0599
x2 = 0.9005 | 0.0431 | 0.0416
x2 = 0.9509 | 0.0221 | 0.0212

COC(C)(C)C [2-methoxy-2-methylpropane] + CCCCCC
298.15 K
Conditions | excess molar enthalpy [kcal/mol]
x1 = 0.0504 | 0.0172
x1 = 0.1002 | 0.0319
x1 = 0.1497 | 0.045
x1 = 0.2008 | 0.0567
x1 = 0.2491 | 0.0658
x1 = 0.2994 | 0.0739
x1 = 0.3486 | 0.0805
x1 = 0.4002 | 0.0856
x1 = 0.4484 | 0.0883
x1 = 0.4997 | 0.0894
x1 = 0.5493 | 0.0885
x1 = 0.6006 | 0.0858
x1 = 0.6496 | 0.0815
x1 = 0.7001 | 0.0749
x1 = 0.75 | 0.0671
x1 = 0.7992 | 0.0569
x1 = 0.8501 | 0.0452
x1 = 0.9007 | 0.0316
x1 = 0.9506 | 0.0169
x1 = 1 | 0

CCOC(C)(C)C [2-ethoxy-2-methylpropane] + Cc1ccccc1
excess molar enthalpy [kcal/mol]
Conditions | 298.15 K | 313.15 K
x1 = 0.0248 | -0.000932 | –
x1 = 0.0491 | -0.00174 | –
x1 = 0.0499 | – | -0.000793
x1 = 0.0739 | -0.00261 | –
x1 = 0.0997 | – | -0.00129
x1 = 0.1003 | -0.00356 | –
x1 = 0.1498 | -0.00507 | –
x1 = 0.151 | – | -0.00222
x1 = 0.1991 | -0.00657 | –
x1 = 0.2004 | – | -0.00298
x1 = 0.2489 | -0.00774 | –
x1 = 0.2511 | – | -0.00405
x1 = 0.2993 | -0.00887 | –
x1 = 0.2998 | – | -0.00479
x1 = 0.3499 | – | -0.00517
x1 = 0.3513 | -0.00968 | –
x1 = 0.3987 | -0.0103 | –
x1 = 0.4011 | – | -0.00591
x1 = 0.4495 | -0.0108 | –
x1 = 0.45 | – | -0.00608
x1 = 0.5003 | – | -0.0065
x1 = 0.5019 | -0.011 | –
x1 = 0.5499 | – | -0.00634
x1 = 0.5515 | -0.0109 | –
x1 = 0.599 | -0.0108 | –
x1 = 0.6007 | – | -0.00599
x1 = 0.6491 | -0.0102 | –
x1 = 0.6506 | – | -0.00587
x1 = 0.6996 | – | -0.00548
x1 = 0.7014 | -0.00946 | –
x1 = 0.7495 | -0.00832 | –
x1 = 0.7498 | – | -0.00491
x1 = 0.801 | -0.007 | –
x1 = 0.8013 | – | -0.00411
x1 = 0.8492 | – | -0.00341
x1 = 0.8514 | -0.00531 | –
x1 = 0.9006 | -0.00361 | –
x1 = 0.9008 | – | -0.0024
x1 = 0.951 | -0.00172 | –
x1 = 0.9511 | – | -0.00144
x1 = 1 | 0 | 0

CCOC(C)(C)C [2-ethoxy-2-methylpropane] + CCCCCCC
excess molar enthalpy [kcal/mol]
Conditions | 298.15 K | 313.15 K
x1 = 0.0511 | – | 0.0101
x1 = 0.0512 | 0.0109 | –
x1 = 0.1007 | 0.0212 | –
x1 = 0.1504 | 0.0293 | –
x1 = 0.1507 | – | 0.0288
x1 = 0.2003 | 0.0387 | –
x1 = 0.2008 | – | 0.037
x1 = 0.2509 | 0.0449 | –
x1 = 0.2511 | – | 0.0453
x1 = 0.3016 | 0.0512 | –
x1 = 0.3019 | – | 0.0507
x1 = 0.3505 | 0.057 | –
x1 = 0.351 | – | 0.055
x1 = 0.4019 | 0.0606 | –
x1 = 0.4024 | – | 0.0587
x1 = 0.4515 | 0.0647 | –
x1 = 0.4518 | – | 0.0601
x1 = 0.5014 | 0.0658 | –
x1 = 0.5017 | – | 0.0605
x1 = 0.5516 | 0.0651 | –
x1 = 0.5519 | – | 0.0598
x1 = 0.6022 | 0.0636 | –
x1 = 0.6024 | – | 0.0586
x1 = 0.6509 | 0.0608 | –
x1 = 0.6511 | – | 0.0558
x1 = 0.7019 | 0.0558 | –
x1 = 0.7022 | – | 0.0521
x1 = 0.7512 | 0.0501 | –
x1 = 0.7515 | – | 0.0465
x1 = 0.8008 | 0.0433 | –
x1 = 0.801 | – | 0.04
x1 = 0.8507 | 0.0349 | –
x1 = 0.8509 | – | 0.0321
x1 = 0.9009 | 0.0243 | –
x1 = 0.901 | – | 0.0225
x1 = 0.9492 | 0.0132 | –
x1 = 0.9493 | – | 0.0122
x1 = 1 | 0 | 0

CCCO [propan-1-ol] + COC(C)(C)C
Conditions | excess molar enthalpy [kcal/mol]
298.15 K, x2 = 0 | 0

COC(C)(C)C [2-methoxy-2-methylpropane] + CCCO
298.15 K
Conditions | excess molar enthalpy [kcal/mol]
x1 = 0.0491 | 0.0148
x1 = 0.0997 | 0.0314
x1 = 0.1503 | 0.0481
x1 = 0.1976 | 0.0632
x1 = 0.2472 | 0.0781
x1 = 0.2965 | 0.0915
x1 = 0.3477 | 0.105
x1 = 0.4008 | 0.116
x1 = 0.4468 | 0.124
x1 = 0.4982 | 0.131
x1 = 0.5486 | 0.136
x1 = 0.5974 | 0.138
x1 = 0.6485 | 0.136
x1 = 0.6977 | 0.133
x1 = 0.7491 | 0.126
x1 = 0.7985 | 0.114
x1 = 0.8494 | 0.0963
x1 = 0.8986 | 0.0737
x1 = 0.9498 | 0.0413
x1 = 1 | 0
